Assay results from patent US9085576B2 (AMGEN INC., priority 2013, dated 2015).

Assays:
Cathepsin D (Cat D) = Cathepsin D (Cat D) (Homo sapiens (Human), UniProt P07339); assay: In vitro enzymatic Cathepsin D (Cat D) FRET assay; type: biochemical; details: read-out: CatD IC50
[1] = molecular target: Beta Secretase enzyme (BACE) (Homo sapiens (Human), UniProt P56817); assay: In vitro enzymatic BACE FRET assay; type: biochemical; details: read-out: BACE1 Enzyme assay IC50
BACE = BACE (Homo sapiens (Human), UniProt P56817); assay: In vitro BACE cell-based assay (Aβ40 in conditioned medium, sandwich ELISA)
Sequence of BACE (P56817 46-501, species assumed): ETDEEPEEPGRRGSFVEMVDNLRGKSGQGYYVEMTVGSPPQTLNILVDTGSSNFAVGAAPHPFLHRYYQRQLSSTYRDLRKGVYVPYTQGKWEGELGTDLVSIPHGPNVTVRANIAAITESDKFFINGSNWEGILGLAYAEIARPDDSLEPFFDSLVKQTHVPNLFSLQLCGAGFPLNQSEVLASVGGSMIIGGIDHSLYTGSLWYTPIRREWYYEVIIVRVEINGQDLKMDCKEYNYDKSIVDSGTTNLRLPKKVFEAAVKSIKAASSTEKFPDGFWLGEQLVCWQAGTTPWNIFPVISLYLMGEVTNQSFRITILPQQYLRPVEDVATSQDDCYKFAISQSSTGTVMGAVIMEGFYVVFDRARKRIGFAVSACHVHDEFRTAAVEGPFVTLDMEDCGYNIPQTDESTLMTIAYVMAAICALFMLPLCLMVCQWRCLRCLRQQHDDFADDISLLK

Sequence of Beta Secretase enzyme (BACE) (P56817 46-501): as the sequence (P56817 46-501, species assumed) above
Sequence of Cathepsin D (Cat D) (P07339 65-412, species assumed): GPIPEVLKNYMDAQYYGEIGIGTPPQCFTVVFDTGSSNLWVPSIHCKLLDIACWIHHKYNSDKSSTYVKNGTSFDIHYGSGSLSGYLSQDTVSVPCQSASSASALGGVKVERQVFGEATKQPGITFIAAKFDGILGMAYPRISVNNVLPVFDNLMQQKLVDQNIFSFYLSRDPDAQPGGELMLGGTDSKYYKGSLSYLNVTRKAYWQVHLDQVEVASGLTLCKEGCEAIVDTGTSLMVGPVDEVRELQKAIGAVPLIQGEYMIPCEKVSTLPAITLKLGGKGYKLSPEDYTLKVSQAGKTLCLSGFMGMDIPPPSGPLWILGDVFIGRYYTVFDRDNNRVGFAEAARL

| Structure (SMILES) | IC50 (Cathepsin D (Cat D)) [µM] | IC50 [1] [µM] | IC50 (BACE) [µM] |
| --- | --- | --- | --- |
| COc1cnc2c(Nc3ccc(F)c([C@@]4(C)N=C(N)O[C@@H]5C[C@@H]54)c3)nccc2c1 [Example 340, (1R,5S,6R)-5-(2-fluoro-5-((3-methoxy-1,7-naphthyridin-8-yl)amino)phenyl)-5-methyl-2-oxa-4-azabicyclo[4.1.0]hept-3-en-3-amine] | > 400 | 0.506 | 0.0796 |
| NC1=N[C@](CF)(c2cc(Nc3nccc4cc(Cl)cnc34)cc(F)c2F)[C@@H]2C[C@@H]2O1 [Example 341, (1S,5S,6S)-5-(5-((3-chloro-1,7-naphthyridin-8-yl)amino)-2,3-difluorophenyl)-5-(fluoromethyl)-2-oxa-4-azabicyclo[4.1.0]hept-3-en-3-amine] | 2890 | 3.41 | 3.41 |
| NC1=N[C@](CF)(c2cc(Nc3nccc4cc(Cl)cnc34)cc(F)c2F)[C@H]2C[C@H]2O1 [Example 342, (1R,5S,6R)-5-(5-((3-chloro-1,7-naphthyridin-8-yl)amino)-2,3-difluorophenyl)-5-(fluoromethyl)-2-oxa-4-azabicyclo[4.1.0]hept-3-en-3-amine] | 50.6 | 0.0598 | 0.12 |
| N#Cc1cnc2c(Nc3ccc(F)c([C@@]4(CF)N=C(N)O[C@@H]5C[C@@H]54)c3)ncc(F)c2c1 [Example 343, 8-((3-((1R,5S,6R)-3-amino-5-(fluoromethyl)-2-oxa-4-azabicyclo[4.1.0]hept-3-en-5-yl)-4-fluorophenyl)amino)-5-fluoro-1,7-naphthyridine-3-carbonitrile] | > 44.4 | 0.0949 | 0.0546 |
| COc1cnc2c(Nc3ccc(F)c([C@@]4(CF)N=C(N)O[C@@H]5C[C@@H]54)c3)ncc(F)c2c1 [Example 344, (1R,5S,6R)-5-(2-fluoro-5-((5-fluoro-3-methoxy-1,7-naphthyridin-8-yl)amino)phenyl)-5-(fluoromethyl)-2-oxa-4-azabicyclo[4.1.0]hept-3-en-3-amine] | 596 | 430 | 0.0982 |
| NC1=N[C@](CF)(c2cc(Nc3nccc4cc(Cl)cnc34)ccc2F)[C@H]2C[C@H]2O1 [Example 345, (1R,5S,6R)-5-(5-((3-chloro-1,7-naphthyridin-8-yl)amino)-2-fluorophenyl)-5-(fluoromethyl)-2-oxa-4-azabicyclo[4.1.0]hept-3-en-3-amine] | 282 | 0.0713 | 0.0543 |
| N#Cc1cnc2c(Nc3ccc(F)c([C@@]4(CF)N=C(N)O[C@@H]5C[C@@H]54)c3)nccc2c1 [Example 346, 8-((3-((1R,5S,6R)-3-amino-5-(fluoromethyl)-2-oxa-4-azabicyclo[4.1.0]hept-3-en-5-yl)-4-fluorophenyl)amino)-1,7-naphthyridine-3-carbonitrile] | 205 | 0.0539 | 0.0176 |
| NC1=N[C@](CF)(c2cc(Nc3ncnc4cc(Cl)cnc34)ccc2F)[C@H]2C[C@H]2O1 [Example 347, (1R,5S,6R)-5-(5-((7-chloropyrido[3,2-d]pyrimidin-4-yl)amino)-2-fluorophenyl)-5-(fluoromethyl)-2-oxa-4-azabicyclo[4.1.0]hept-3-en-3-amine] | 106 | 0.133 | 0.0624 |
| COc1cnc2c(Nc3ccc(F)c([C@@]4(C(F)F)N=C(N)O[C@@H]5C[C@@H]54)c3)nccc2c1 [Example 348, (1R,5S,6R)-5-(difluoromethyl)-5-(2-fluoro-5-((3-methoxy-1,7-naphthyridin-8-yl)amino)phenyl)-2-oxa-4-azabicyclo[4.1.0]hept-3-en-3-amine] | 738 | 0.456 | 0.106 |
| N#Cc1cnc2c(Nc3ccc(Cl)c([C@@]4(C(F)F)N=C(N)O[C@@H]5C[C@@H]54)c3)ncc(F)c2c1 [Example 350, 8-((3-((1R,5S,6R)-3-amino-5-(difluoromethyl)-2-oxa-4-azabicyclo[4.1.0]hept-3-en-5-yl)-4-chlorophenyl)amino)-5-fluoro-1,7-naphthyridine-3-carbonitrile] | > 14.8 | 0.0319 | 0.0628 |
| N#Cc1cnc2c(Nc3ccc(F)c([C@@]4(C(F)F)N=C(N)O[C@@H]5C[C@@H]54)c3)ncc(F)c2c1 [Example 352, 8-((3-((1R,5S,6R)-3-amino-5-(difluoromethyl)-2-oxa-4-azabicyclo[4.1.0]hept-3-en-5-yl)-4-fluorophenyl)amino)-5-fluoro-1,7-naphthyridine-3-carbonitrile] | 192 | 0.0391 | 0.0593 |
| NC1=N[C@@](c2cc(Nc3ncnc4cc(Cl)cnc34)ccc2F)(C(F)F)[C@H]2C[C@H]2O1 [Example 353, (1R,5S,6R)-5-(5-((7-chloropyrido[3,2-d]pyrimidin-4-yl)amino)-2-fluorophenyl)-5-(difluoromethyl)-2-oxa-4-azabicyclo[4.1.0]hept-3-en-3-amine] | 141 | 0.0639 | 0.0503 |
| COc1cnc2c(Nc3ccc(F)c([C@]4(CF)N=C(N)O[C@H]5C[C@H]54)c3F)nccc2n1 [Example 354, (1S,5R,6S)-5-(2,6-difluoro-3-((2-methoxypyrido[3,4-b]pyrazin-5-yl)amino)phenyl)-5-(fluoromethyl)-2-oxa-4-azabicyclo[4.1.0]hept-3-en-3-amine] | 292 | 12.7 | 1.46 |
| COc1cnc2c(Nc3ccc(F)c([C@@]4(CF)N=C(N)O[C@@H]5C[C@@H]54)c3F)nccc2n1 [Example 355, (1R,5S,6R)-5-(2,6-difluoro-3-((2-methoxypyrido[3,4-b]pyrazin-5-yl)amino)phenyl)-5-(fluoromethyl)-2-oxa-4-azabicyclo[4.1.0]hept-3-en-3-amine] | 2750 | > 40 | > 15.6 |
| CC(C)Oc1cnc2c(Nc3cc(Cl)c(F)c([C@@]4(CF)N=C(N)O[C@@H]5C[C@@H]54)c3)nccc2n1 [Example 357, (1R,5S,6R)-5-(3-chloro-2-fluoro-5-((2-isopropoxypyrido[3,4-b]pyrazin-5-yl)amino)phenyl)-5-(fluoromethyl)-2-oxa-4-azabicyclo[4.1.0]hept-3-en-3-amine] | 323 | 0.375 | 0.918 |
| Cn1cc2ccnc(Nc3ccc(F)c([C@@]4(C(F)F)N=C(N)O[C@@H]5C[C@@H]54)c3)c2n1 [Example 358] | > 400 | 2.09 | 0.134 |

Further lines, results first:

| IC50 (Cathepsin D (Cat D)) [µM] | IC50 [1] [µM] | IC50 (BACE) [µM] | Structure (SMILES) |
| --- | --- | --- | --- |
| > 400 | > 40 | > 15.6 | COc1cnc(C(=O)Nc2ccc(F)c([C@]3(C)N=C(N)O[C@H]4C[C@H]43)n2)cn1 [Example 323, N-(6-((1S,5R,6S)-3-amino-5-methyl-2-oxa-4-azabicyclo[4.1.0]hept-3-en-5-yl)-5-fluoropyridin-2-yl)-5-methoxypyrazine-2-carboxamide] |
| 182 | 0.149 | 0.0283 | C[C@]1(c2nc(NC(=O)c3ccc(C#N)cn3)ccc2F)N=C(N)O[C@@H]2C[C@@H]21 [Example 324, N-(6-((1R,5S,6R)-3-amino-5-methyl-2-oxa-4-azabicyclo[4.1.0]hept-3-en-5-yl)-5-fluoropyridin-2-yl)-5-cyanopicolinamide] |
| 279 | 0.242 | 0.0323 | C[C@]1(c2nc(NC(=O)c3ccc(Cl)cn3)ccc2F)N=C(N)O[C@@H]2C[C@@H]21 [Example 326, N-(6-((1R,5S,6R)-3-amino-5-methyl-2-oxa-4-azabicyclo[4.1.0]hept-3-en-5-yl)-5-fluoropyridin-2-yl)-5-chloropicolinamide] |
| 1320 | 2.14 | 0.703 | C[C@@]1(c2nc(NC(=O)c3ccc(Cl)cn3)ccc2F)N=C(N)O[C@H]2C[C@H]21 [Example 327, N-(6-((1S,5R,6S)-3-amino-5-methyl-2-oxa-4-azabicyclo[4.1.0]hept-3-en-5-yl)-5-fluoropyridin-2-yl)-5-chloropicolinamide] |
| 512 | 0.103 | 0.0116 | C[C@]1(c2nc(NC(=O)c3ncc(Cl)cc3Cl)ccc2F)N=C(N)O[C@@H]2C[C@@H]21 [Example 328, N-(6-((1R,5S,6R)-3-amino-5-methyl-2-oxa-4-azabicyclo[4.1.0]hept-3-en-5-yl)-5-fluoropyridin-2-yl)-3,5-dichloropicolinamide] |
| 1610 | > 40 | 9.6 | C[C@@]1(c2nc(NC(=O)c3ncc(Cl)cc3Cl)ccc2F)N=C(N)O[C@H]2C[C@H]21 [Example 329, N-(6-((1S,5R,6S)-3-amino-5-methyl-2-oxa-4-azabicyclo[4.1.0]hept-3-en-5-yl)-5-fluoropyridin-2-yl)-3,5-dichloropicolinamide] |
| 1510 | 26.7 | > 15.6 | N#Cc1ccc(C(=O)Nc2ccc(F)c([C@@]3(C(F)F)N=C(N)O[C@@H]4C[C@@H]43)n2)nc1 [Example 331, N-(6-((1R,5S,6R)-3-amino-5-(difluoromethyl)-2-oxa-4-azabicyclo[4.1.0]hept-3-en-5-yl)-5-fluoropyridin-2-yl)-5-cyanopicolinamide] |
| 402 | 0.0944 | 0.0089 | C[C@]1(c2cc(NC(=O)c3ccc(Cl)cn3)cnc2F)N=C(N)O[C@@H]2C[C@@H]21 [Example 334, N-(5-((1R,5S,6R)-3-amino-5-methyl-2-oxa-4-azabicyclo[4.1.0]hept-3-en-5-yl)-6-fluoropyridin-3-yl)-5-chloropicolinamide] |
| > 400 | 0.435 | 0.0416 | COc1cnc(C(=O)Nc2cnc(F)c([C@]3(C)N=C(N)O[C@H]4C[C@H]43)c2)cn1 [Example 336, N-(5-((1(R,S),5(S,R),6(R,S))-3-amino-5-methyl-2-oxa-4-azabicyclo[4.1.0]hept-3-en-5-yl)-6-fluoropyridin-3-yl)-5-methoxypyrazine-2-carboxamide] |
